Assay results taken from patent publication US12061201B2, “Fluorescent probes for the visualization of FtsZ in gram-positive and gram-negative bacterial pathogens” (Rutgers, The State University of New Jersey, priority 2019, dated 2024).

Molecular target: T1, FtsZ in S. aureus NRS705 cells (Staphylococcus aureus, UniProt P0A031)
T1 construct: endogenous in cells; host or cells: S. aureus NRS705
T1 sequence (P0A031 1-390): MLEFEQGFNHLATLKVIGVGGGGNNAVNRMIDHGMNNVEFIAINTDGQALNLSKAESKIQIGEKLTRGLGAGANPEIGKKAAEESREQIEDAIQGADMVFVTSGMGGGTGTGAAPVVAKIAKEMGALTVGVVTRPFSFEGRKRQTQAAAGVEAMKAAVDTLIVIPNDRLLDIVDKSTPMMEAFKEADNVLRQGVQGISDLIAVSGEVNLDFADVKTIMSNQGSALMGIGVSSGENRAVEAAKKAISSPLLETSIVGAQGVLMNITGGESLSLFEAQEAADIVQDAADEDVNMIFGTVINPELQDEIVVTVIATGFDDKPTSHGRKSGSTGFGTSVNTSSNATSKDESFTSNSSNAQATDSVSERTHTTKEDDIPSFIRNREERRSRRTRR
Assay: Fluorescence microscopy FtsZ visualization in live cells
Type: cell-based
Settings: 1 μg/mL (1.3 μM) BOFP, 5 minutes
Experimental: Fluorescence microscopy assay for visualizing FtsZ and monitoring cell division in live Gram-positive and Gram-negative bacterial cells using BOFP. All fluorescence microscopy experiments were conducted using an Olympus BX50 microscope equipped with an X-cite Exacte 200W mercury lamp, a 100× Olympus UPLSAPO oil immersion objective (1.40 aperture), and a Chroma ET-EGFP (FITC/Cy2) filter. Images were captured using a QImaging Retiga R3 charge-coupled device (CCD) camera and the Ocular-Version 2.0 software package (QImaging).
For visualizing FtsZ in Gram-positive bacteria using BOFP, the bacterial cells were grown to log-phase in media suitable for each individual pathogen. Specifically, S. aureus NRS705 was grown in tryptic soy broth (TSB), E. faecalis ATCC 29212 and E. faecium ATCC 19434 were grown in lactobacilli MRS broth, S. agalactiae ATCC 12386 and S. pneumoniae ATCC 49619 were grown in TH broth, and S. pyogenes ATCC 19615 was grown in CAMH broth supplemented with 3% (v/v) LHB. For each Gram-positive bacterial strain, a total of 1 mL of cell culture was centrifuged at 15,000×g for 1 minute and washed 2-3 times with 1 mL of PBS. After the final wash, the pelleted cells were resuspended in 500 μL of PBS containing 1 μg/mL of BOFP and incubated in the dark for 5 minutes at room temperature. The cells were then centrifuged at 15,000×g for 1 minute, washed twice with 1 mL of PBS, and subsequently resuspended in 200 μL of PBS. 8 μL of this final cell suspension was then spread on a 0.25 mm layer of 1.5% high-resolution agarose (Sigma) in PBS, which was mounted on a standard 75×25×1 mm microscope slide (Azer Scientific) using a 1.7×2.8×0.025 cm Gene Frame (ThermoFisher). A 24×40 mm cover slip (Azer Scientific) was then applied to the agarose pad to prepare the slide for microscopic visualization.

CC1=CC(C)=[N+]2C1=Cc1ccc(CCC(=O)OCC(Oc3ccc(F)c(C(N)=O)c3F)c3nc(-c4ccc(C(F)(F)F)cc4)c(Br)o3)n1[B-]2(F)F (stereo not shown) [BOFP, 2-(5-bromo-4-(4-(trifluoromethyl)phenyl)-oxazol-2-yl)-2-(3-carbamoyl-2,4-difluorophenoxy)ethyl 3-(5,5-difluoro-7,9-dimethyl-5H-5λ^4,6λ^4-dipyrrolo[1,2-c:2′,1′-f][1,3,2]diazaborinin-3-yl)propanoate]
FtsZ labeling (fluorescence staining) in live cells: bright bands of fluorescence staining were clearly visible at midcell
